Experimental data as given in publication PMC8185074, “Anchor extension: a structure-guided approach to design cyclic peptides targeting enzyme active sites” (Nature Communications, 2021).
Like-named read-outs stand apart in the source and are kept apart here. Peptide text beside a SMILES is read from it.

How the values were obtained:
Type in all cases: biochemical
HDAC2 [1] = molecular target: T1, HDAC2 (Homo sapiens, UniProt Q92769); experiment: HDAC2 inhibition, full IC50 measurement (Reaction Biology; fluorogenic p53 peptide RHKK(Ac)AMC); conditions: for HDAC2 activity raw data (signal): single trial
T1 construct: purchased Reaction Biology Corporation (assay run by the CRO)
T1 sequence (Q92769 whole entry): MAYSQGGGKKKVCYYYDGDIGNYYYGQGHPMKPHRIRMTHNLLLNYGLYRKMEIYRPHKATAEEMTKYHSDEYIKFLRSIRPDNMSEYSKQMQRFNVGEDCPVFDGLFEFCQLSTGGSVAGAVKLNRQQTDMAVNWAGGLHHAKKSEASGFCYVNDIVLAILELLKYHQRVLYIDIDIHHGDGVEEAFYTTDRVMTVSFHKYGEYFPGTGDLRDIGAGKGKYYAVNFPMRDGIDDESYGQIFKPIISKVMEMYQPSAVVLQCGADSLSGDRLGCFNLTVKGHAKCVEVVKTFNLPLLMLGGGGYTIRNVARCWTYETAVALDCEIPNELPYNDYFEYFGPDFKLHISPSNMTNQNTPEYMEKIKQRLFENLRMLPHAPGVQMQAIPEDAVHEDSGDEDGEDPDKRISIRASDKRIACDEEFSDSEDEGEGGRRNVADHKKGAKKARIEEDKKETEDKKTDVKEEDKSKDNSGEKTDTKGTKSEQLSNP
Description: (§1) The assay was performed using 50 μM fluorogenic peptide from p53 residues 379-382 [RHKK(Ac)AMC] in a base reaction buffer of 50 mM Tris-HCl at pH 8.0, 137 mM NaCl, 2.7 mM KCl, 1 mM MgCl2, and freshly added 1 mg/ml BSA and 1% DMSO. Peptides were first dissolved in DMSO and then added to the reaction mixture with the enzyme using acoustic technique, enough to reach the desired concentration for that assay point. Peptide concentrations were calculated based on mass of lyophilized peptide and its molecular weight. The substrate was then added and incubated for 1 hour at 30 °C in a sealed container. After the incubation, developer was added to stop the reaction and develop color. Kinetic measurements were then performed for 20 min with Envision with 5 min intervals (Ex/Em = 360/460 nm). The endpoint after plateau was taken for IC50 measurement.
(§2) In cases where duplicate measures are used, average data is reported in the main text or Supplementary Tables.

HDAC2 [2] = molecular target: T1, HDAC2; experiment: Initial HDAC2 IC50 estimate (BPS Biosciences HDAC fluorogenic assay kit)
Description: Initial IC50 values were estimated using HDAC fluorogenic assay kits from BPS Biosciences (HDAC2, HDAC4, and HDAC6) following the protocol described in the kit. All the measures were performed in duplicates or triplicates. These measurements were done either on full range of concentrations (1:10 dilution from 1 µM to 100 pM) or on two concentrations only (20 nM and 200 nM) as an estimate of the range. […] Source Data are provided as a Source Data file.

HDAC6 = molecular target: T2, HDAC6 (Homo sapiens, UniProt Q9UBN7); experiment: HDAC6 inhibition, full IC50 measurement (Reaction Biology; fluorogenic p53 peptide RHKK(Ac)AMC); conditions: single trial
T2 construct: purchased Reaction Biology Corporation (assay run by the CRO)
T2 sequence (Q9UBN7 1-1215): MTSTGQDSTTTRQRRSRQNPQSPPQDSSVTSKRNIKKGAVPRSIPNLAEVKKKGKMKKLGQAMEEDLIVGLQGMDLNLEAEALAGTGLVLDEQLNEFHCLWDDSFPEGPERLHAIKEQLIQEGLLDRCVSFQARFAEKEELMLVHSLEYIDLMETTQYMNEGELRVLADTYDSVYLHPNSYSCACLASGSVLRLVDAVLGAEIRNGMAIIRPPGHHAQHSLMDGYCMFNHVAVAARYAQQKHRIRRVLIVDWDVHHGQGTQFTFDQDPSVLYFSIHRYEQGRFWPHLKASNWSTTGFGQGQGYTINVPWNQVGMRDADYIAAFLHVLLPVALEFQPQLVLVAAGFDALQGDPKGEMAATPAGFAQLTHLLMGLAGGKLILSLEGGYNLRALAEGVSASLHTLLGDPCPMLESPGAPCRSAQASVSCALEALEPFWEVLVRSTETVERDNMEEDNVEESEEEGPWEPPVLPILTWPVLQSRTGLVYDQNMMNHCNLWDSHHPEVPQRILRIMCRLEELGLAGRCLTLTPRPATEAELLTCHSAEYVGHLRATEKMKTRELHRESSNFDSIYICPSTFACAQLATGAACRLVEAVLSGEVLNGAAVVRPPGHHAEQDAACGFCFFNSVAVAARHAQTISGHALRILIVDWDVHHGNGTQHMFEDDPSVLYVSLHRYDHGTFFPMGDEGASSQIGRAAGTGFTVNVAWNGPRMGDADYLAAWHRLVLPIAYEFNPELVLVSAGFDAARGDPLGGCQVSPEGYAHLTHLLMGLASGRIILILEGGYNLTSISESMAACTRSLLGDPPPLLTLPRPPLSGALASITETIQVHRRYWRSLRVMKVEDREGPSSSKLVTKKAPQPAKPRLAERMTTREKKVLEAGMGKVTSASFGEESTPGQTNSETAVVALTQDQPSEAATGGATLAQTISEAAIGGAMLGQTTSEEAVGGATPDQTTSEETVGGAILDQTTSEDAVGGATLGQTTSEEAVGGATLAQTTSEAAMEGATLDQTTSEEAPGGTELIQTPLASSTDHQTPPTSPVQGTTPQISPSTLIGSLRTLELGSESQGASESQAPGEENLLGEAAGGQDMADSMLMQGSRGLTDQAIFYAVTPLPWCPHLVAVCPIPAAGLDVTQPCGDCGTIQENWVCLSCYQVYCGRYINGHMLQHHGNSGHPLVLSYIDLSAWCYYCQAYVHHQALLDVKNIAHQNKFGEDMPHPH
Description: as §1, §2

HDAC3 = molecular target: T3, HDAC3 (Homo sapiens, UniProt O15379); experiment: HDAC3 inhibition, full IC50 measurement (Reaction Biology; fluorogenic p53 peptide RHKK(Ac)AMC); conditions: single trial
T3 construct: purchased Reaction Biology Corporation (assay run by the CRO)
T3 sequence (O15379 whole entry): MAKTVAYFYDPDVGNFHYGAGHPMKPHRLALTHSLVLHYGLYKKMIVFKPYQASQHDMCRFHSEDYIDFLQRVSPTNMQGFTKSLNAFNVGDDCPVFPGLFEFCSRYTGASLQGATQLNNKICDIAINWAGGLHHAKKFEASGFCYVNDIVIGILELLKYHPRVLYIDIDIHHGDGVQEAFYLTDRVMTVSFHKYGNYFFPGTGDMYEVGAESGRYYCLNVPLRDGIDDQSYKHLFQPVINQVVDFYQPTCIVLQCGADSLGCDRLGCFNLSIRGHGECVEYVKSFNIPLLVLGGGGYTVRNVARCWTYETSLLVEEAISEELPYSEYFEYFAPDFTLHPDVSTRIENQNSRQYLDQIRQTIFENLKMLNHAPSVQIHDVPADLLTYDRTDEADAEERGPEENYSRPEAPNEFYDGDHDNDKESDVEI
T3 sequence (Q9Y618 395-489 partner limits assumed): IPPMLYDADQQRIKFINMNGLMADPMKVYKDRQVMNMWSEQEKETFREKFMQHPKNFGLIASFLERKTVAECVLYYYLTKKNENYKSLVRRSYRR
Description: as §1, §2

[3] = Supp. Table 4, rough estimates, for promising hits full measurements, read-out: HDAC2 activity (initial values for HDAC2 IC50)
[4] = Supplementary Dataset 2, read-out: HDAC2 activity (initial activity)

SMILES: N=C(N)NCCC[C@@H]1NC(=O)[C@@H](CCCNC(=N)N)NC(=O)[C@H]2CCCN2C(=O)[C@@H](Cc2c[nH]cn2)NC(=O)[C@H](Cc2ccc(O)cc2)NC(=O)[C@H](CCCCCS)NC(=O)[C@H](CCc2ccccc2)NC(=O)[C@@H](CCCCN)NC(=O)[C@H](CC(=O)O)NC1=O [des3.2.0, SHA-Tyr-dHis-dPro-dArg-Arg-Asp-dLys-C27] (HELM PEPTIDE1{D.[dK].[O=C([C@H](CCc1ccccc1)N[*:1])[*:2]].[O=C([C@H](CCCCCS)N[*:1])[*:2]].Y.[dH].[dP].[dR].R}$PEPTIDE1,PEPTIDE1,1:R1-9:R2$$$V2.0)
- 2-Selectivity: fold potency for HDAC2 over HDAC6 (HDAC2 [1]): 0.53 fold
- IC50 (HDAC2 [2]; [3]): 28 nM
- IC50 (HDAC2 [2]; [4]): > 10 nM

SMILES: N=C(N)NCCC[C@@H]1NC(=O)[C@@H](CCCNC(=N)N)NC(=O)[C@H]2CCCN2C(=O)[C@@H](Cc2c[nH]cn2)NC(=O)[C@H](Cc2ccc(O)cc2)NC(=O)[C@H](CCCCCS)NC(=O)[C@H](CCc2ccccc2)NC(=O)[C@H]2CCCN2C(=O)[C@H](CC(=O)O)NC1=O [des3.2.1, SHA-Tyr-dHis-dPro-dArg-Arg-Asp-dPro-C27] (HELM PEPTIDE1{D.[dP].[O=C([C@H](CCc1ccccc1)N[*:1])[*:2]].[O=C([C@H](CCCCCS)N[*:1])[*:2]].Y.[dH].[dP].[dR].R}$PEPTIDE1,PEPTIDE1,1:R1-9:R2$$$V2.0)
- 2-Selectivity: fold potency for HDAC2 over HDAC6 (HDAC2 [1]): 0.44 fold
- IC50 (HDAC2 [2]; HDAC2 activity (initial values for HDAC2 IC50), Supp. Table 4, rough estimates, for promising hits full measurements): 66 nM

SMILES: N=C(N)NCCC[C@H]1NC(=O)[C@H]2CCCN2C(=O)[C@@H](Cc2c[nH]cn2)NC(=O)[C@H](Cc2ccc(O)cc2)NC(=O)[C@H](CCCCCS)NC(=O)[C@H](CCc2ccccc2)NC(=O)[C@@H](CCCCN)NC(=O)[C@H](CC(=O)O)NC(=O)[C@@H]2CCCN2C1=O [des3.2.2, SHA-Tyr-dHis-dPro-dArg-Pro-Asp-dLys-C27] (HELM PEPTIDE1{D.[dK].[O=C([C@H](CCc1ccccc1)N[*:1])[*:2]].[O=C([C@H](CCCCCS)N[*:1])[*:2]].Y.[dH].[dP].[dR].P}$PEPTIDE1,PEPTIDE1,1:R1-9:R2$$$V2.0)
- 2-Selectivity: fold potency for HDAC2 over HDAC6 (HDAC2 [1]): 0.41 fold
- IC50 (HDAC2 [2]; [4]): 58 nM

SMILES: N=C(N)NCCC[C@H]1NC(=O)[C@H]2CCCN2C(=O)[C@@H](Cc2c[nH]cn2)NC(=O)[C@H](Cc2ccc(O)cc2)NC(=O)[C@H](CCCCCS)NC(=O)[C@H](CCc2ccccc2)NC(=O)[C@H]2CCCN2C(=O)[C@H](CC(=O)O)NC(=O)[C@@H]2CCCN2C1=O [des3.2.3, SHA-Tyr-dHis-dPro-dArg-Pro-Asp-dPro-C27] (HELM PEPTIDE1{D.[dP].[O=C([C@H](CCc1ccccc1)N[*:1])[*:2]].[O=C([C@H](CCCCCS)N[*:1])[*:2]].Y.[dH].[dP].[dR].P}$PEPTIDE1,PEPTIDE1,1:R1-9:R2$$$V2.0)
- 2-Selectivity: fold potency for HDAC2 over HDAC6 (HDAC2 [1]): 0.47 fold
- IC50 (HDAC2 [2]; HDAC2 activity (initial activity), Supplementary Dataset 2): 92 nM

SMILES: NCCCC[C@@H]1NC(=O)[C@@H](CC(N)=O)NC(=O)[C@H]2CCCN2C(=O)[C@@H](Cc2c[nH]cn2)NC(=O)[C@H](Cc2ccc(O)cc2)NC(=O)[C@H](CCCCCS)NC(=O)[C@H](CCc2ccccc2)NC1=O [des3.2.4, SHA-Tyr-dHis-dPro-dAsn-Lys-C27] (HELM PEPTIDE1{K.[O=C([C@H](CCc1ccccc1)N[*:1])[*:2]].[O=C([C@H](CCCCCS)N[*:1])[*:2]].Y.[dH].[dP].[dN]}$PEPTIDE1,PEPTIDE1,1:R1-7:R2$$$V2.0)
- HDAC6 activity raw data (signal) (HDAC6; Conc. 1.00E-04 M): -2801
- HDAC6 activity raw data (signal) (HDAC6; Conc. 1.11E-05 M): -1849
- HDAC6 activity raw data (signal) (HDAC6; Conc. 1.23E-06 M): 4374
- HDAC6 activity raw data (signal) (HDAC6; Conc. 1.37E-07 M): 43765
- HDAC6 activity raw data (signal) (HDAC6; Conc. 1.52E-08 M): 190706
- HDAC6 activity raw data (signal) (HDAC6; Conc. 3.33E-05 M): -563
- HDAC6 activity raw data (signal) (HDAC6; Conc. 3.70E-06 M): -1989
- HDAC6 activity raw data (signal) (HDAC6; Conc. 4.12E-07 M): 12736
- HDAC6 activity raw data (signal) (HDAC6; Conc. 4.57E-08 M): 97833
- HDAC6 activity raw data (signal) (HDAC6; Conc. 5.08E-09 M): 278125
- 2-Selectivity: fold potency for HDAC2 over HDAC6 (HDAC2 [1]): 0.43 fold
- HDAC2 activity raw data (signal) (HDAC2 [1]; Conc. 1.00E-04 M): -2073
- HDAC2 activity raw data (signal) (HDAC2 [1]; Conc. 1.11E-05 M): 877
- HDAC2 activity raw data (signal) (HDAC2 [1]; Conc. 1.23E-06 M): 16887
- HDAC2 activity raw data (signal) (HDAC2 [1]; Conc. 1.37E-07 M): 156676
- HDAC2 activity raw data (signal) (HDAC2 [1]; Conc. 1.52E-08 M): 359436
- HDAC2 activity raw data (signal) (HDAC2 [1]; Conc. 3.33E-05 M): -5431
- HDAC2 activity raw data (signal) (HDAC2 [1]; Conc. 3.70E-06 M): -8111
- HDAC2 activity raw data (signal) (HDAC2 [1]; Conc. 4.12E-07 M): 83192
- HDAC2 activity raw data (signal) (HDAC2 [1]; Conc. 4.57E-08 M): 254992
- HDAC2 activity raw data (signal) (HDAC2 [1]; Conc. 5.08E-09 M): 399941
- IC50 (HDAC2 [2]; [4]): 54 nM
- HDAC3 activity raw data (signal) (HDAC3; Conc. 1.00E-04 M): -9402
- HDAC3 activity raw data (signal) (HDAC3; Conc. 1.11E-05 M): 593
- HDAC3 activity raw data (signal) (HDAC3; Conc. 1.23E-06 M): 35444
- HDAC3 activity raw data (signal) (HDAC3; Conc. 1.37E-07 M): 204357
- HDAC3 activity raw data (signal) (HDAC3; Conc. 1.52E-08 M): 337866
- HDAC3 activity raw data (signal) (HDAC3; Conc. 3.33E-05 M): -3894
- HDAC3 activity raw data (signal) (HDAC3; Conc. 3.70E-06 M): 11659
- HDAC3 activity raw data (signal) (HDAC3; Conc. 4.12E-07 M): 78893
- HDAC3 activity raw data (signal) (HDAC3; Conc. 4.57E-08 M): 259781
- HDAC3 activity raw data (signal) (HDAC3; Conc. 5.08E-09 M): 427232

SMILES: N=C(N)NCCC[C@@H]1NC(=O)[C@@H](CCCNC(=N)N)NC(=O)[C@H]2CCCN2C(=O)[C@@H](CO)NC(=O)[C@H](Cc2ccc(O)cc2)NC(=O)[C@H](CCCCCS)NC(=O)[C@H](CCc2ccccc2)NC(=O)[C@@H](CCC(N)=O)NC(=O)[C@H](CC(=O)O)NC1=O [des3.3.2, SHA-Tyr-dSer-dPro-dArg-Arg-Asp-dGln-C27] (HELM PEPTIDE1{D.[dQ].[O=C([C@H](CCc1ccccc1)N[*:1])[*:2]].[O=C([C@H](CCCCCS)N[*:1])[*:2]].Y.[dS].[dP].[dR].R}$PEPTIDE1,PEPTIDE1,1:R1-9:R2$$$V2.0)
- 2-Selectivity: fold potency for HDAC2 over HDAC6 (HDAC2 [1]): 3 fold
- IC50 (HDAC2 [2]; [3]): 57 nM
- IC50 (HDAC2 [2]; [4]): 50 nM
